In patent US9125903B2, “Composition useful for the treatment of lipid metabolism disorders” (SIGMA-TAU INDUSTRIE FARMACEUTICHE RIUNITE, S.P.A., priority 2011, dated 2015):

Assays:
Format in all cases: in vivo
[1] = tested on: male CD1 mice on high-cholesterol diet; test: Plasma total cholesterol levels in male CD1 mice on high-cholesterol diet; set-up: % Reduction total cholesterol: concentration or dose not given beside the values; conditions: for % Reduction total cholesterol: VS Cont. (high-cholesterol diet control, group 1); for Total-cholesterol (mg/dL) Mean values ± S.E.: plasma, oral twice a day for 17 days and one time on day 18, blood 8 h from last treatment, post-absorptive, monacolin K 2, fish oil 200, hexacosanol 25, resveratrol 5, Coenzyme Q10 50, vitamin B6 0.3, vitamin B12 0.25, L-carnitine 20 mg/kg
Method: (§1) Male CD 1 mice on a high-cholesterol diet (DP/104, Altromin-Rieper) for about 25 days were used. An acclimatization period of seven days was allowed before the start of the high-cholesterol diet.
(§2) Mice were housed inside cages with stainless steel cover-feed and sterilized and dust-free bedding cobs. Animals were housed under a light-dark cycle, keeping temperature and humidity constant. Parameters of the animal rooms are assessed as follows: 22±2° C. temperature, 55±10% relative humidity, about 15-20 filtered air changes/hour and 12 hours circadian cycle of artificial light (7 a.m., 7 p.m.). The environmental conditions were monitored.
(§3) Mice were divided into groups (10 mice per group) and treated orally (1 mL) twice daily with the compounds of the invention or their combinations at the doses reported in the following:
(§4) monacolin K 2 mg/kg (dissolved in water);
(§5) fish oil 200 mg/kg (dissolved in ethanol);
(§6) Hexacosanol 25 mg/kg (dissolved in ethanol);
(§7) resveratrol 5 mg/kg (dissolved in ethanol);
(§8) Coenzyme Q10 50 mg/kg (dissolved in water);
(§9) Vitamin B6 0.3 mg/kg (dissolved in water);
(§10) Vitamin B12 0.25 mg/kg (dissolved in water);
(§11) L-carnitine 20 mg/kg (dissolved in water).
(§12) At the start of treatment, the body weight of the animals was checked and monitoring of the animals' consumption of water and feed was scheduled.
(§13) On day 18, plasma cholesterol, triglyceride and HDL cholesterol were evaluated. […]

[2] = tested on: male CD1 mice on high-cholesterol diet; test: Plasma HDL-cholesterol levels in male CD1 mice on high-cholesterol diet; conditions: for % of increase HDL-cholesterol: VS Cont. (high-cholesterol diet control, group 1); for HDL-cholesterol: plasma, mean values ± S.E., oral twice a day for 17 days and one time on day 18, blood 8 h from last treatment, post-absorptive, monacolin K 2, fish oil 200, hexacosanol 25, resveratrol 5, Coenzyme Q10 50, vitamin B6 0.3, vitamin B12 0.25, L-carnitine 20 mg/kg
Method: as §1, §2, §3, §4, §5, §6, §7, §8, §9, §10, §11, §12, §13

[3] = tested on: male CD1 mice on high-cholesterol diet; test: Plasma triglycerides levels in male CD1 mice on high-cholesterol diet; set-up: % Reduction triglycerides: concentration or dose not given beside the values; conditions: for % Reduction triglycerides: VS Cont. (high-cholesterol diet control, group 1); for Triglycerides (mg/dL) Mean values ± S.E.: plasma, oral twice a day for 17 days and one time on day 18, blood 8 h from last treatment, post-absorptive, monacolin K 2, fish oil 200, hexacosanol 25, resveratrol 5, Coenzyme Q10 50, vitamin B6 0.3, vitamin B12 0.25, L-carnitine 20 mg/kg
Method: as §1, §2, §3, §4, §5, §6, §7, §8, §9, §10, §11, §12, §13

Compound	% Reduction total cholesterol [1]	Total-cholesterol (mg/dL) Mean values ± S.E. [1]	% of increase HDL-cholesterol [2]	HDL-cholesterol [2]	% Reduction triglycerides [3]	Triglycerides (mg/dL) Mean values ± S.E. [3]
COC1=C(OC)C(=O)C(C/C=C(\C)CC/C=C(\C)CC/C=C(\C)CC/C=C(\C)CC/C=C(\C)CC/C=C(\C)CC/C=C(\C)CC/C=C(\C)CC/C=C(\C)CCC=C(C)C)=C(C)C1=O [Coenzyme Q10]	−3%	355.8 ± 25.2 mg/dL	+4%	23.9 ± 2.2 mg/dL	−3%	196.4 ± 22.1 mg/dL
CCCCCCCCCCCCCCCCCCCCCCCCCCO [Hexacosanol]	−16%	307.2 ± 23.9 mg/dL	+15%	26.4 ± 2.0 mg/dL	−15%	172.1 ± 12.3 mg/dL
C[N+](C)(C)C[C@H](O)CC(=O)[O-] [L-carnitine]	−12%	322.8 ± 21.1 mg/dL	+21%	27.8 ± 2.1 mg/dL	−5%	192.3 ± 16.4 mg/dL
CC[C@H](C)C(=O)O[C@H]1C[C@@H](C)C=C2C=C[C@H](C)[C@H](CC[C@@H]3C[C@@H](O)CC(=O)O3)[C@H]21 [Monacolin K, monacolin K]	−21%	289.7 ± 21.0 mg/dL	+10%	25.3 ± 2.1 mg/dL	−8%	186.3 ± 20.8 mg/dL
Oc1ccc(/C=C/c2cc(O)cc(O)c2)cc1 [Resveratrol, trans-3,4′,5-trihydroxystilbene]	−4%	352.1 ± 19.1 mg/dL	+3%	23.7 ± 1.9 mg/dL	−22%	157.9 ± 12.4 mg/dL
Cc1ncc(CO)c(CO)c1O.Cl [Vitamin B6]	−5%	348.5 ± 18.5 mg/dL	+5%	24.1 ± 2.5 mg/dL	−4%	194.3 ± 16.7 mg/dL
cobalamin [Vitamin B12]	−4%	352.1 ± 20.2 mg/dL	+5%	24.3 ± 23 mg/dL	−4%	194.5 ± 17.4 mg/dL
